Our source for the Ki values is ChEMBL document CHEMBL1129054, “Conformationally constrained analogues of diacylglycerol. 13. Protein kinase C ligands based on templates derived from 2,3-dideoxy-L-erythro(threo)-hexono-1,4-lactone and 2-deoxyapiolactone” (J Med Chem, 1996).

The target of this assay is Protein kinase C alpha type (Homo sapiens, UniProt P17252). In words: Displacement of [3H-20] phorbol 12,13-dibutyrate(PDBU) from recombinant Protein kinase C alpha. On the technique in general: Displacement assays read how much labelled ligand stays bound in the presence of the test substance.
For the compound `CCCCCCCCCCCCCCOC(=O)C[C@]1(CCO)COC(=O)C1`, the Ki – broadly, a dissociation constant, usually derived from enzyme kinetics or from competition with a known ligand – stood at 10.4 µM. For `CCCCCCCCCCCCCCOC(=O)C[C@@]1(CCO)COC(=O)C1` the value was 18.4 µM; for `CCCCCCCCCCCCCCOC(=O)C[C@@]1(CO)COC(=O)C1`, 16.9 µM; for `CCCCCCCCCCCCCC(=O)O[C@@H](CO)[C@H]1CCC(=O)O1`, 28 µM. For `CCCCCCCCCCCCCC(=O)O[C@@H](CO)[C@@H]1CCC(=O)O1` the value was 1.07 µM; for `CCCCCCCCCCCCCCOC(=O)CC1(CCO)COC(=O)C1` (single isomer, unassigned), 24.1 µM.
